The test system of this assay is Adenocarcinoma HT29 cells from the human colon. Kind of assay: Adenocarcinoma HT29 cell proliferation, WST1 (compounds in DMA). Conditions: final DMA 0.1% (v/v). Format: cell-based. The procedure:
c. Adenocarcinoma HT29 cells from the human colon are cultured in a single layer at 37° in a humidified atmosphere containing 95% of air and 5% of CO2, in a modified essential Earle's medium at 4.5 g/l (Gibco, Paisley, United Kingdom); completed with 10% of inactivated foetal calf serum, 2 mM of glutamine, and 50 μg/ml of gentamycin (Gibco, Paisley, United Kingdom).
Approximately 2000 cells are seeded with the culture medium above in the wells of a microplate (96 wells, flat-bottomed) and incubated for 24 hours. Solutions in N,N-dimethyl-acetamide (DMA) of each of the examples of the invention, diluted in the culture medium so that the final concentration of DMA is 0.1% (v/v), are added to the plate cultures in order to obtain final concentration ranges from 1×10^−13 to 1×10^−5 M, and the cells are incubated for 72 hours.
The WST1 staining reagent, (Boehringer Mannheim, Germany) is then added to each well at a final concentration of 9%, and the cells are incubated for 2 hours at 37° C. This stage allows the mitochondrial deshydrogenase of the living cells to convert WST1 orange tetrazolium salt into crimson formazan. The resulting stained solutions are quantified by dual-beam detection ([…]) using a multi-cuvette scanning spectrophotometer.
The results shown in the following table III C) are expressed in terms of inhibitory concentration at 50% (IC50, in nM), accompanied by a confidence interval.
For orientation: Tetrazolium assays rely on reduction of a dye to a coloured formazan, in cell work by metabolically active cells.

Turning to `CCCc1c2c(nc3cc(F)cc(F)c13)-c1cc3c(c(=O)n1C2)COC(=O)C[C@]3(O)CC` [Example 169, (5R)-5-ethyl-9,11-difluoro-5-hydroxy-12-propyl-4,5,13,15-tetrahydro-1H,3H-oxepino[3′,4′:6,7]indolizino[1,2-b]quinoleine-3,15-dione], half-maximal inhibition (72 hours) (IC50) was put at 2.3 nM.
As to `CCCCc1c2c(nc3cc(F)c(F)cc13)-c1cc3c(c(=O)n1C2)COC(=O)C[C@]3(O)CC` [Example 95, (5R)-12-butyl-5-ethyl-9,10-difluoro-5-hydroxy-4,5,13,15-tetrahydro-1H,3H-oxepino[3′,4′:6,7]indolizino[1,2-b]quinoline-3,15-dione], under “Homo sapiens, HT-29, 72 hours”, half-maximal inhibition (IC50) was put at 8.5 nM.
Turning to `CCOCCc1c2c(nc3cc(F)cc(F)c13)-c1cc3c(c(=O)n1C2)COC(=O)C[C@]3(O)CC` [Example 170, (5R)-12-(2-ethoxyethyl)-5-ethyl-9,11-difluoro-5-hydroxy-4,5,13,15-tetrahydro-1H,3H-oxepino[3′,4′:6,7]indolizino[1,2-b]quinoleine-3,15-dione], the IC50 (as a rule, the concentration at which inhibition is half-maximal) (72 hours) was determined as 0.85 nM.
Regarding `CC[C@@]1(O)CC(=O)OCc2c1cc1n(c2=O)Cc2c-1nc1cc(F)ccc1c2-c1ccc(F)cc1` [Example 115, (5R)-5-ethyl-9-fluoro-12-(4-fluorophenyl)-5-hydroxy-4,5,13,15-tetrahydro-1H,3H-oxepino[3′,4′:6,7]indolizino[1,2-b]quinoline-3,15-dione], inhibition (Homo sapiens, HT-29, 72 hours) was half-maximal at 0.26 nM (IC50).
The same measure, in the same setting: for `CCc1c2c(nc3cc(F)c(F)cc13)-c1cc3c(c(=O)n1C2)COC(=O)C[C@]3(O)CC` [Example 98, (5R)-5,12-diethyl-9,10-difluoro-5-hydroxy-4,5,13,15-tetrahydro-1H,3H-oxepino[3′,4′:6,7]indolizino[1,2-b]quinoline-3,15-dione] the value was 2.1 nM.
In turn, `CC[C@@]1(O)CC(=O)OCc2c1cc1n(c2=O)Cc2cc3c(F)cc(F)cc3nc2-1` [Example 100, (5R)-5-ethyl-9,11-difluoro-5-hydroxy-4,5,13,15-tetrahydro-1H,3H-oxepino[3′,4′:6,7]indolizino[1,2-b]quinoline-3,15-dione] registered a 50% inhibitory concentration (IC50) (Homo sapiens, HT-29, 72 hours) of 2.2 nM.
In turn, `CC[C@@]1(O)CC(=O)OCc2c1cc1n(c2=O)Cc2c-1nc1cc(F)ccc1c2-c1ccc(N(C)C)cc1` [Example 167, (5R)-12-(4-dimethylaminophenyl)-5-ethyl-9-fluoro-5-hydroxy-4,5,13,15-tetrahydro-1H,3H-oxepino[3′,4′:6,7]indolizino [1,2-b]quinoleine-3,15-dione] returned an IC50 (72 hours) of 13 nM.
Compound `CC[C@@]1(O)CC(=O)OCc2c1cc1n(c2=O)Cc2c-1nc1cc(F)ccc1c2-c1cc(F)cc(F)c1` [Example 117, (5R)-12-(3,5-difluorophenyl)-5-ethyl-9-fluoro-5-hydroxy-4,5,13,15-tetrahydro-1H,3H-oxepino[3′,4′:6,7]indolizino[1,2-b]quinoline-3,15-dione] yielded an IC50 (Homo sapiens, HT-29, 72 hours) of 0.25 nM.
The same measure, in the same setting: for `CCc1c2c(nc3ccccc13)-c1cc3c(c(=O)n1C2)COC(=O)C[C@]3(O)CC` [Example 88, (5R)-5,12-diethyl-5-hydroxy-4,5,13,15-tetrahydro-1H,3H-oxepino[3′,4′:6,7]indolizino[1,2-b]quinoline-3,15-dione] the value was 12 nM; for `CC[C@@]1(O)CC(=O)OCc2c1cc1n(c2=O)Cc2c-1nc1cc(F)c(F)cc1c2-c1ccccc1` [Example 93, (5R)-5-ethyl-9,10-difluoro-5-hydroxy-12-phenyl-4,5,13,15-tetrahydro-1H,3H-oxepino[3′,4′:6,7]indolizino[1,2-b]quinoline-3,15-dione], 12 nM.
On to `CC[C@@]1(O)CC(=O)OCc2c1cc1n(c2=O)Cc2c-1nc1cc(F)ccc1c2-c1ccc(OC(F)(F)F)cc1` [Example 166, (5R)-5-ethyl-9-fluoro-5-hydroxy-12-(4-trifluoromethoxyphenyl)-4,5,13,15-tetrahydro-1H,3H-oxepino[3′,4′:6,7]indolizino[1,2-b]quinoleine-3,15-dione], for which, under “72 hours”, 8.9 nM corresponded to half-maximal inhibition (IC50).
`CC[C@@]1(O)CC(=O)OCc2c1cc1n(c2=O)Cc2c-1nc1cc(F)ccc1c2CCc1ccccc1` [Example 140, (5R)-5-ethyl-9-fluoro-5-hydroxy-12-phenethyl-4,5,13,15-tetrahydro-1H,3H-oxepino[3′,4′:6,7]indolizino[1,2-b]quinoline-3,15-dione] displayed an IC50 (Homo sapiens, HT-29, 72 hours) of 3.2 nM.
Turning to `CCc1c2c(nc3cc(F)ccc13)-c1cc3c(c(=O)n1C2)COC(=O)C[C@]3(O)CC` [Example 106, (5R)-5,12-diethyl-9-fluoro-5-hydroxy-4,5,13,15-tetrahydro-1H,3H-oxepino[3′,4′:6,7]indolizino[1,2-b]quinoline-3,15-dione], the half-inhibitory concentration (IC50) (Homo sapiens, HT-29, 72 hours) amounted to 3.5 nM.
`CCCCc1c2c(nc3cc(F)ccc13)-c1cc3c(c(=O)n1C2)COC(=O)C[C@]3(O)CC` [Example 105, (5R)-12-butyl-5-ethyl-9-fluoro-5-hydroxy-4,5,13,15-tetrahydro-1H,3H-oxepino[3′,4′:6,7]indolizino[1,2-b]quinoline-3,15-dione] came in with a 50% inhibitory concentration (IC50) (Homo sapiens, HT-29, 72 hours) of 9.5 nM.
On to `CC[C@@]1(O)CC(=O)OCc2c1cc1n(c2=O)Cc2c-1nc1cc(F)ccc1c2-c1ccc(C(F)(F)F)cc1` [Example 165, (5R)-5-ethyl-9-fluoro-5-hydroxy-12-(4-trifluoromethylphenyl)-4,5,13,15-tetrahydro-1H,3H-oxepino[3′,4′:6,7]indolizino[1,2-b]quinoleine-3,15-dione], for which the IC50 (72 hours) stood at 1.7 nM.
`CCCc1c2c(nc3cc(F)c(F)cc13)-c1cc3c(c(=O)n1C2)COC(=O)C[C@]3(O)CC` [Example 97, (5R)-5-ethyl-9,10-difluoro-5-hydroxy-12-propyl-4,5,13,15-tetrahydro-1H,3H-oxepino[3′,4′:6,7]indolizino[1,2-b]quinoline-3,15-dione] returned an IC50 (Homo sapiens, HT-29, 72 hours) of 11 nM.
As to `CC[C@@]1(O)CC(=O)OCc2c1cc1n(c2=O)Cc2c-1nc1cc(F)ccc1c2CC(C)C` [Example 162, (5R)-5-ethyl-9-fluoro-5-hydroxy-12-isobutyl-4,5,13,15-tetrahydro-1H,3H-oxepino[3′,4′:6,7]indolizino[1,2-b]quinoleine-3,15-dione], inhibition (72 hours) was half-maximal at 12 nM (IC50).

Values taken from patent US6815546B2, “Analogues of camptothecin, their use as medicaments and the pharmaceutical compositions containing them” (Societe de Recherches et d'Applications Scientifiques …, priority 1995, dated 2004).
